Data set [1] relates to Staphylococcus aureus. Nature of the data set: Antimicrobial activity against Staphylococcus aureus IVDC C56005 assessed as microbial growth inhibition in presence of trypsin. The data set is classed as functional, organism-based.
Data set [2] is described as follows: Toxicity in human RBCs assessed as induction hemolysis at 0.01 to 200 ug/mL. The format is cell-based. The following applies: erythrocyte.
The test system of data set [3] is Escherichia coli. In words: Antimicrobial activity against Escherichia coli K99 by microdilution assay. The data set is classed as functional. For orientation: Dilution methods test growth across graded concentrations, often in twofold steps.
Data set [4] relates to Escherichia coli. In words: Antimicrobial activity against Escherichia coli K88 by microdilution assay. The format is functional.
Data set [5] relates to Escherichia coli. Nature of the data set: Antimicrobial activity against Escherichia coli K12D31 by microdilution assay. The format is functional.
The test system of data set [6] is Staphylococcus aureus. In words: Antimicrobial activity against Staphylococcus aureus IVDC C56005 assessed as microbial growth inhibition at >85 degC for 20 mins. The data set is classed as functional, organism-based.
The test system of data set [7] is Staphylococcus aureus. Nature of the data set: Antimicrobial activity against Staphylococcus aureus IVDC C56005 assessed as microbial growth inhibition at pH <4.0. The data set is classed as functional, organism-based.
In data set [8] the test system is Staphylococcus aureus. In words: Antimicrobial activity against Staphylococcus aureus IVDC C56005 by microdilution assay. The data set is classed as functional.
The test system of data set [9] is Staphylococcus aureus. Nature of the data set: Antimicrobial activity against Staphylococcus aureus IVDC C56005 assessed as microbial growth inhibition at 55 degC for 20 mins. The format is functional, organism-based.
For data set [10], the system named is Staphylococcus aureus. Nature of the data set: Antimicrobial activity against Staphylococcus aureus IVDC C56005 assessed as microbial growth inhibition at pH 4 to 9. The data set is classed as functional, organism-based.
The next data set relates to Salmonella enteritidis. In words: Antimicrobial activity against Salmonella enterica serovar Enteritidis IVDC C79-52 by microdilution assay. The data set is classed as functional, Salmonella enterica subsp. enterica serovar Enteritidis.
The subject of another data set is Enterococcus faecalis. Nature of the data set: Antimicrobial activity against Streptococcus faecalis IVDC C55614 by microdilution assay. The data set is classed as functional.
Another data set has as its system Salmonella typhimurium. In words: Antimicrobial activity against Salmonella enterica serovar Typhimurium IVDC C77-31 by microdilution assay. The data set is classed as functional, Salmonella enterica subsp. enterica serovar Typhimurium.
Data set [11] has as its system Staphylococcus aureus. Nature of the data set: Antimicrobial activity against Staphylococcus aureus IVDC C56005 assessed as microbial growth inhibition in presence of pepsin. The format is functional, organism-based.
Data set [12] concerns Staphylococcus aureus. In words: Antimicrobial activity against Staphylococcus aureus IVDC C56005 assessed as microbial growth inhibition in presence of proteinase K. The data set is classed as functional, organism-based.

SMILES strings stand for the structures. ≈ marks a conversion by molar mass, not a printed value. Calls of active or inactive are those of the source. Where a SMILES comes first, the peptide text is derived from it.

One may read the MIC as the smallest concentration in the dilution series that meets the test's criterion for growth inhibition. A lower MIC goes with a more susceptible organism. Take `CC[C@H](C)[C@H](NC(=O)[C@H](CCCCN)NC(=O)[C@H](CCCCN)NC(=O)[C@H](Cc1ccccc1)NC(=O)[C@H](CC(C)C)NC(=O)[C@H](CCCCN)NC(=O)[C@H](Cc1c[nH]c2ccccc12)NC(=O)[C@@H](N)CCCCN)C(=O)N[C@@H](CCC(=O)O)C(=O)N[C@@H](CCCCN)C(=O)N[C@H](C(=O)NCC(=O)N[C@@H](CCC(N)=O)C(=O)N[C@@H](CCCNC(=N)N)C(=O)N[C@H](C(=O)N[C@@H](CCCNC(=N)N)C(=O)N[C@@H](CC(=O)O)C(=O)N[C@@H](C)C(=O)N[C@H](C(=O)N[C@H](C(=O)N[C@@H](CO)C(=O)N[C@@H](C)C(=O)NCC(=O)N1CCC[C@H]1C(=O)N[C@@H](C)C(=O)N[C@H](C(=O)N[C@@H](C)C(=O)N[C@H](C(=O)N[C@H](C(=O)N[C@@H](C)C(=O)N[C@@H](CCC(N)=O)C(=O)N[C@@H](C)C(=O)N[C@H](C(=O)N[C@@H](C)C(=O)N[C@@H](CC(C)C)C(=O)N[C@@H](C)C(=O)N[C@@H](CCCCN)C(=O)O)[C@@H](C)O)C(C)C)[C@@H](C)O)C(C)C)[C@@H](C)CC)C(C)C)C(C)C)C(C)C` [CECROPIN AD] (H-KWKLFKKIEKVGQRVRDAVISAGPAVATVAQATALAK-OH): the “growth inhibition (GI)” value in the data set with Staphylococcus aureus [1], in the data set with Staphylococcus aureus [9], in the data set on Staphylococcus aureus [10], in the data set with Staphylococcus aureus [11] and with Staphylococcus aureus [12] was “Active” each time. For the same compound, the Activity entry in [2] is given as “Non-toxic”. The minimum inhibitory concentration (MIC) with Escherichia coli [3] came out at 2 µg/mL (≈ 0.506 µM); in the data set with Escherichia coli [4], 2 µg/mL (≈ 0.506 µM); in the data set on Escherichia coli [5], 1.8 µg/mL (≈ 0.456 µM); in the data set on Staphylococcus aureus [8], 0.2 µg/mL (≈ 0.0506 µM); in the data set on Salmonella enteritidis, 16 µg/mL (≈ 4.05 µM); in the data set with Enterococcus faecalis, 24 µg/mL (≈ 6.07 µM). In the data set on Salmonella typhimurium, this compound displayed an MIC of 8 µg/mL (≈ 2.02 µM). Also, the “growth inhibition (GI)” value in the data set on Staphylococcus aureus [6] and with Staphylococcus aureus [7] was “inactive” throughout.

Values taken from ChEMBL document CHEMBL1649582, “Novel expression vector for secretion of cecropin AD in Bacillus subtilis with enhanced antimicrobial activity” (Antimicrob Agents Chemother, 2009).
